Measured values published in publication PMC6013238, “Development of novel NEMO-binding domain mimetics for inhibiting IKK/NF-κB activation” (PLoS Biology, 2018).
Values joined by “and” are separate entries in the source; they are usually repeats but may differ in a detail not shown here. Equal entries are not always repeated.

Assays:
[1] = tested on: p-IκBα (IKK kinase activity); experiment: Western blot of p-IκBα after TNF-α in HEK293 cells; type: cell-based, human; settings: 100 μM, 30 min pretreatment, TNF-α 10 ng/ml 0, 5, 10 min
Description: (§1) To confirm that the NBD mimetics reduce IKK kinase activity, phosphorylation of IκBα by IKK in response to 10 ng/ml of TNF-α was measured by western blot at 0, 5, and 10 min after stimulation. […] To determine whether the mimetics also reduce NF-κB DNA binding activity, electrophoretic mobility shift assay (EMSA) was conducted both in vitro and in vivo. […] The addition of acetonitrile increased the stability of both ZINC compounds, especially ZINC 5 (Fig 3D).
Fig 3 Two identified small molecules reduce NF-κB DNA binding activity in vivo and in vitro. (A) Levels of p-IκBα with or without treatment in response to TNF-α were determined by western blot analysis. HEK293 cells were pretreated with DMSO, ZINC12909780 (100 μM), and ZINC5 (100 μM) for 30 min followed by the stimulation of 10 ng/ml of TNF-α for 0, 5, and 10 min. […]
Cell lysate was prepared in RIPA buffer (20 mM Tris-HCl [pH 7.5], 150 mM NaCl, 1 mM Na^2EDTA, 1 mM EGTA, 1% NP-40, 1% sodium deoxycholate, 2.5 mM sodium pyrophosphate, 1 mM beta-glycerophosphate, 1 mM Na3VO4, and 1 μg/ml leupeptin), supplemented with 1X protease inhibitor cocktails (MilliporeSigma, St. Louis, MO) and 1X Halt phosphatase inhibitor cocktail (ThermoFisher, Waltham, MA). Protein concentrations were determined by Lowry protein assays, and 30 μg of protein was resolved by MINI-PROTEAN TGX 4%–15% SDS-PAGE gels. […]

[2] = tested on: NF-κB DNA binding activity; experiment: EMSA of NF-κB DNA binding activity in C2C12 myoblasts; type: cell-based, mouse; settings: 200 μM, 1 h, serum-free media; TNF-α 10 ng/ml 15 min
Description: as §1
Fig 3 Two identified small molecules reduce NF-κB DNA binding activity in vivo and in vitro. (A) Levels of p-IκBα with or without treatment in response to TNF-α were determined by western blot analysis. HEK293 cells were pretreated with DMSO, ZINC12909780 (100 μM), and ZINC5 (100 μM) for 30 min followed by the stimulation of 10 ng/ml of TNF-α for 0, 5, and 10 min. Cell lysates were prepared for immunoblot against p-IκBα. GAPDH was used as a loading control. (B) EMSA analysis detecting NF-κB DNA binding activity was performed in C2C12 myoblasts. Cells were pretreated with 200 μM of DMSO, ZINC12909780, and ZINC5 in serum-free media for 1 h. TNF-α was then added to a final concentration of 10 ng/ml and incubated for 15 min. Nuclear extract was obtained for EMSA analysis. (C) EMSA analysis assessing NF-κB DNA binding activity in vivo was performed with quadriceps from mdx mice. […]

[3] = Stability time course in FBS media with or without acetonitrile; type: in vitro ADME
Description: as §1
Fig 3 Two identified small molecules reduce NF-κB DNA binding activity in vivo and in vitro. (A) Levels of p-IκBα with or without treatment in response to TNF-α were determined by western blot analysis. HEK293 cells were pretreated with DMSO, ZINC12909780 (100 μM), and ZINC5 (100 μM) for 30 min followed by the stimulation of 10 ng/ml of TNF-α for 0, 5, and 10 min. Cell lysates were prepared for immunoblot against p-IκBα. GAPDH was used as a loading control. (B) EMSA analysis detecting NF-κB DNA binding activity was performed in C2C12 myoblasts. Cells were pretreated with 200 μM of DMSO, ZINC12909780, and ZINC5 in serum-free media for 1 h. TNF-α was then added to a final concentration of 10 ng/ml and incubated for 15 min. Nuclear extract was obtained for EMSA analysis. (C) EMSA analysis assessing NF-κB DNA binding activity in vivo was performed with quadriceps from mdx mice. Single-dose ZINC12909780 and ZINC5 at 10 mg/kg was given by i.p. Quadriceps was harvested at 1 h and 2 h post injection for EMSA analysis. (D) The time-course pharmacokinetics of ZINC5 and ZINC12909780 in FBS media or FBS media containing acetonitrile. Underlying data can be found in S1 Data. EMSA, electrophoretic mobility shift assay; HEK293, human embryonic kidney 293 cells; i.p., intraperitoneal; NF-κB, nuclear factor κB; t1/2, half-life; TNF-α; tumor necrosis factor α.

NF-κB target genes = experiment: qRT-PCR of NF-κB target genes in LPS-stimulated Raw 264.7 cells; type: cell-based, mouse; settings: LPS 1 μg/ml 2 h; for Effect on transcription of NF-κB target genes (COX-2, IL-6, IL-1β, TNF-α, IκBα, iNOS): 50 μM
[4] = Fig 4C, IKKi VII 2 μM, 8K-NBD 200 μM, SR compounds 50 μM, relative to no LPS

## Nc1ncccc1C(=O)OCC(=O)Nc1ccc(Cl)cc1F [ZINC12909780]
[1]
  Level of p-IκBα following TNF-α stimulation: less robust reduction
[2]
  TNF-α-induced NF-κB DNA binding activity (EMSA): inhibit TNF-α-induced NF-κB DNA binding activity
[3]
  Stability in cell culture media containing FBS: relatively more stable
[3]; bovine, FBS media containing acetonitrile, fbs-media+acetonitrile, 15 min
  remaining at 0.25 h: 94.8%
[3]; bovine, FBS media containing acetonitrile, fbs-media+acetonitrile, 30 min
  remaining at 0.5 h: 103%
[3]; bovine, FBS media containing acetonitrile, fbs-media+acetonitrile, 60 min
  remaining at 1 h: 106%
[3]; bovine, FBS media containing acetonitrile, fbs-media+acetonitrile, 240 min
  remaining at 4 h: 104%
[3]; bovine, cell culture media containing FBS, FBS-media
  half-life: 15 h
[3]; bovine, cell culture media containing FBS, fbs-media, 15 min
  remaining at 0.25 h: 101%
[3]; bovine, cell culture media containing FBS, fbs-media, 30 min
  remaining at 0.5 h: 105%
[3]; bovine, cell culture media containing FBS, fbs-media, 60 min
  remaining at 1 h: 92%
[3]; bovine, cell culture media containing FBS, fbs-media, 240 min
  remaining at 4 h: 85%

## O=C(COC(=O)Cc1ccccc1F)Nc1ccc(Cl)cn1 [ZINC5]
[1]
  Level of p-IκBα following TNF-α stimulation: reduced the level of p-IκBα
[2]
  TNF-α-induced NF-κB DNA binding activity (EMSA): inhibit TNF-α-induced NF-κB DNA binding activity
[3]
  Stability in cell culture media containing FBS: extremely unstable
[3]; FBS-media
  t1/2: 1.5 h
[3]; FBS-media+acetonitrile
  t1/2: 10.8 h
[3]; fbs-media+acetonitrile, 15 min
  % remaining: 77.2%
[3]; fbs-media+acetonitrile, 30 min
  % remaining: 85.8%
[3]; fbs-media+acetonitrile, 60 min
  % remaining: 86.3%
[3]; fbs-media+acetonitrile, 240 min
  % remaining: 69.4%
[3]; fbs-media, 15 min
  % remaining: 90.8%
[3]; fbs-media, 30 min
  % remaining: 79.8%
[3]; fbs-media, 60 min
  % remaining: 61.8%
[3]; fbs-media, 240 min
  % remaining: 16.4%

## O=C(CNc1ccc(Cl)cn1)NCCc1cccc(Br)c1 [SR12343]
NF-κB target genes; [4]
  COX2 mRNA expression (qRT-PCR): 201.141 and 209.385
  IL6 mRNA expression (qRT-PCR): 204.868 and 211.79
  IL-1b mRNA expression (qRT-PCR): 270.981 and 273.172
  TNFa mRNA expression (qRT-PCR): 84.4509 and 85.4634
  iNOS mRNA expression (qRT-PCR): 6.825 and 6.083
  ikBa mRNA expression (qRT-PCR): 15.399 and 14.5661
NF-κB target genes
  Effect on transcription of NF-κB target genes (COX-2, IL-6, IL-1β, TNF-α, IκBα, iNOS): significant inhibition on COX-2, IL-6, and iNOS expression

## O=C(CNCCc1cc(F)cc(F)c1)Nc1ccc(Cl)cn1 [SR12460]
NF-κB target genes; [4]
  COX2 mRNA expression (qRT-PCR): 38.9806 and 69.3201 and 44.3249
  IL-1b mRNA expression (qRT-PCR): 108.936
  iNOS mRNA expression (qRT-PCR): 2.289 and 2.778
NF-κB target genes
  Effect on transcription of NF-κB target genes (COX-2, IL-6, IL-1β, TNF-α, IκBα, iNOS): significantly inhibit the transcription of all NF-κB target genes tested
